Data: patent publication EP0503537B1, “6,9 Bis(substituted-amino)benzo-[g]isoquinoline-5,10-diones” (THE UNIVERSITY OF VERMONT, priority 1991, dated 1992)
≈ marks a conversion by molar mass, not a printed value. Where “and” joins values, the source holds several entries; their conditions need not be identical. Equal entries are not always repeated. Structures can show the parent of a compound that is named as a salt. Marks after values point to notes of the source that are not given here.

Legend:
murine L 1210 leukemia [1] = details: in vitro, from J. Med. Chem. (1985), 28, 1124-1126; cited from earlier work
[2] = test system: L1210 Murine leukemia cells; experiment: In vitro growth inhibition of L1210 murine leukemia cells (Coulter Counter); assay type: cell-based; details: Mus musculus, 72 hours of continuous exposure
Procedure: The "in vitro" cytotoxic evaluation was also performed on L 1210 murine leukemia cells using the above mentioned cells maintained in suspension cultures (McCoy's 5A medium supplemented with 10% horse serum, glutamine, penicillin and streptomycin) grown in an humidified environment of 10% carbon dioxide and 90% air at 37°C. The compounds were dissolved in dimethylsulfoxide (DMSO) and added to the suspended cells in appropriate concentrations. After 72 hours of continuous exposure, the cell concentration was counted using a Coulter Counter and growth inhibition calculated using the formula: % growth inhibition = 1 - [cell number treated/cell number DMSO alone] x 100. [formula]
The IC50 was calculated from the growth inhibition data and they are reported in table VII in comparison to the prior art compound 5a (see table I for structure of 5a).
L1210 Murine leukemia cells were routinely maintained in suspension cultures in McCoy's 5A medium supplemented with 10% horse serum glutamine, penicillin and streptomycin and grown in a humidified environment of 10% carbon dioxide and 90% air at 37°C.
To assess the in vitro toxicity, each compound was dissolved in dimethylsulfoxide and added to 1 ml of L1210 cells (10^5 cells/tube) to attain final concentrations of 0.01, 0.1 and 1 µg of drug/ml of culture. After 72 hours of continues exposure to the drug, the cell concentration was determined with a Coulter Counter. Growth inhibition was calculated for each drug using the following formula: % growth inhibition = 1-[cell number treated/cell number DMSO alone] x 100. [formula]
The growth inhibition data was then used to calculate the IC50 value (the calculated drug concentration required to inhibit cell growth by 50% of control.

L1210 murine leukemia [3] = experiment: In vivo L1210 murine leukemia (ip/ip, d 1, 5, 9), protocol a, 10^6 cells; design: species or system BDF1 mice; details: days 1, 5 and 9, ip; for %T/C: mean survival time; for LTS: tumor-free at 60 days
Procedure: (§1) L 1210 leukemia cells were intraperitoneally (ip) injected in CDFl mice and treatment was initiated approximately 24 hours after tumor transplantation. Dosages of the drugs were administered ip according to preestablished protocols, usually at 4-day intervals. The studies were done over a 60-day period and the date of death for each animal was recorded. The % T/C was determined using the mean survival time (MST) for each group according to the formula % T/C = [(MST treated)/(MST control)] x 100 [formula]
(§2) • a) L1210 murine leukemia cells were maintained in vivo by weekly intraperitoneal (ip) injections of 10^6 cells in BDF1 mice. For test purposes, mice were inoculated i.p. with 10^6 L1210 cells and treatment was initiated 24 hours later. The desired dose of drug was administered on days 1, 5 and 9. Mice were observed daily for signs of toxicity and survival. The date of death was recorded for each animal that died or was sacrificed during the 60-day study. The mean survival time (MST) for each treatment group was calculated and the % T/C was determined using the following formula: % T/C = [(MST treated)/(MST control)] x 100 [formula] The results are reported in table X • b) L1210 murine leukemia cells were maintained in vivo by weekly intraperitoneal (ip) injections of 10^5 cells in DBA2 mice. For test purposes, CDF1 mice were inoculated i.p. with 10^5 L1210 cells and treatment was initiated 24 hours later. The desired dose of drug was administered on days 1, 5 and 9. Mice were observed daily for signs of toxicity and survival. The date of death was recorded for each animal that died or was sacrificed during the 60-day study. The median survival time (MST) for each treatment group was calculated and the % T/C was determined using the following formula: % T/C = [(MST treated)/(MST control)] x 100 [formula]

murine L 1210 leukemia [4] = details: in vivo, Dose 50 mg/kg; cited from earlier work
P388 Murine Leukemia [5] = experiment: In vivo P388 murine leukemia (iv/iv, d 1, 4, 7); details: for T/C% (range): median survival time; for LTS: tumor free at 60 days
Procedure: P388 Murine Leukemia cells were maintained in vivo by serial intraperitoneal (i.p.) injections of 10^6 cells in DBA2 mice. For test purposes, CDF1 mice were inoculated intravenously (i.v.) with 10^6 P388 cells and treatment was initiated 24 hr later. The i.v. dose of drug was administered on days 1, 4 and 7. Mice were observed daily for signs of toxicity and survival. The date of death was recorded for each animal that died or was sacrificed during the 60 day study. The median survival time (MST) for each treatment group was calculated and the % T/C was determined using the following formula: % T/C = [(MST treated)/(MST control)] x 100 [formula]

[6] = test system: human colon adenocarcinoma cell line (Lovo); experiment: MTT cytotoxicity assay on human colon adenocarcinoma Lovo cells; assay type: cell-based; details: 144 h, read-out: IC50 µg/ml±S.D. LoVo
Procedure: (§3) The evaluation of the "in vitro" cytotoxic activity of the compounds of the invention was performed using a human colon adenocarcinoma cell line (Lovo) isolated from a metastatic nodule and a subline with aquired resistance to a number of antitumor agents, among which doxorubicin, VP-16 and vincristine. […] The compounds were tested according to the MTT assay (Mosman, T., "Rapid Colorimetric assay for cellular growth and survival: application to proliferation and cytotoxicity assay", J. Immunol. Methods, (1983), 65, 55-63; Green, L.M., "Rapid colorimetric assay for cell viability; application to the quantitation of cytotoxic and growth inhibitory lymphokines", J. Immunol. Methods, (1984), 70, 257-268) in comparison with mitoxantrone, ametantrone and doxorubicin.
(§4) In vitro biological evaluation: MTT assay on human colon adenocarcinoma Lovo cells.
(§5) The MTT assay was performed according to Mosmann, T., J. Immunol. Methods, (1983), 65, 55-63 and Green, L. M., J. Immunol. Methods, (1984), 70, 257-268.
(§6) Immediately before use, compounds and reference standards are dissolved in proper solvent and subsequently further diluted in complete culture medium. Human colon adenocarcinoma cells Lovo and the subline resistant to doxorubicin (Lovo/DX) (2.5. 10^4 cells/ml) are plated in 96-well plates and preincubated for 24 hours in culture medium. After this time, the cells are exposed to drugs for 144 hours, then the thiazolyl blue tetrazolium bromide solution (MTT solution) is added and the cells are reincubated for 4 hours. The supernatant is removed and 150 µl of dimethylsulfoxide are added to solubilize formazan crystals. The plate is read at 570 nm with microplate reader and the inhibiting concentration of 50% cellular growth (IC50; µg/ml) is calculated.

Lovo/DX = experiment: MTT cytotoxicity assay on doxorubicin-resistant subline Lovo/DX; assay type: cell-based, human
Procedure: as §3, §4, §5, §6

L1210 murine leukemia [7] = experiment: In vivo ascitic L1210 murine leukemia (ip/ip, d 1, 5, 9), protocol b, 10^5 cells; design: species or system CDF1 mice; details: for %T/C: median survival time; for TOX: toxic deaths/total No. of mice; for LTS: tumor free at 60 days
Procedure: as §1, with “Dosages” for “L 1210 leukemia cells were intraperitoneally (ip) injected in CDFl mice and treatment was initiated approximately 24 hours after tumor transplantation. Dosages”
as §2, with “The mean survival time (MST) for each treatment group was calculated and the % T/C was determined using the following formula: % T/C = [(MST treated)/(MST control)] x 100 [formula] The results are reported in table X • b) L1210 murine leukemia cells were maintained in vivo by weekly intraperitoneal (ip) injections of 10^5 cells in DBA2 mice.” left out

P388 Murine Leukemia [8] = experiment: In vivo ascitic P388 murine leukemia (ip/ip, d 1, 5, 9); design: species or system CDF1 mice; details: for % T/C (range): median survival time; for TOX: toxic deaths/total No. of mice
Procedure: Treatment was initiated approximately 24 hours after tumor transplantation and dosages of the drug were administered ip (P388 ip/ip) or iv (P388 iv/iv) according to preestablished protocols, usually at 3-day (P388 iv/iv) or 4-day (P388 ip/ip) intervals. The studies were done over a 60-day period and the date of death for each animal was recorded. The % T/C was determined using the mean survival time (MST) for each group according to the formula % T/C = [(MST treated)/(MST control)] x 100 [formula]
P388 Murine Leukemia cells were maintained in vivo by serial intraperitoneal (ip) injections of 10^6 cells in DBA2 mice. For test purposes, CDF1 mice were inoculated i.p. with 10^6 P388 cells and treatment was initiated 24 hours later. The i.p dose of drug was administered on days 1, 5 and 9. Mice were observed daily for signs of toxicity and survival. The date of death was recorded for each animal that died or was sacrificed during the 60-day study. The median survival time (MST) for each treatment group was calculated and the % T/C was determined using the following formula: % T/C = [(MST treated)/(MST control)] x 100 [formula]

Structure (SMILES): CN(C)CCNc1ccc(NCCN(C)C)c2c1C(=O)c1cccnc1C2=O [Compound 5a, 6,9-bis{[2-(dimethylamino)ethyl]amino}benzo[g]quinoline-5,10-dione, reference compound]
- ID50 (murine L 1210 leukemia [1]): 0.16 µg/mL (≈ 0.419 µM)
- IC50 [2]: 0.155 µg/mL (≈ 0.406 µM)
- %T/C (L1210 murine leukemia [3]; Dose 50 mg/kg): 129%
- T/C (murine L 1210 leukemia [4]): 130

Structure (SMILES): CN(C)CCNc1ccc(NCCN(C)C)c2c1C(=O)c1ccncc1C2=O [Compound 10a, 6,9-Bis{[2-(dimethylamino)ethyl]amino}benzo[g]isoquinoline-5,10-dione]
- IC50 [2]: 0.006 µg/mL (≈ 0.0157 µM)
- %T/C (L1210 murine leukemia [3]; Dose 50 mg/kg): 151%
- T/C% (range) (P388 Murine Leukemia [5]; 18 mg/kg/day iv days 1,4,7): 172% and 156%
- LTS (P388 Murine Leukemia [5]; 18 mg/kg/day iv days 1,4,7): 0/14
- T/C% (range) (P388 Murine Leukemia [5]; 27 mg/kg/day iv days 1,4,7): 188% and 167%
- LTS (P388 Murine Leukemia [5]; 27 mg/kg/day iv days 1,4,7): 0/17
- T/C% (range) (P388 Murine Leukemia [5]; 40 mg/kg/day iv days 1,4,7): 183% and 156%
- LTS (P388 Murine Leukemia [5]; 40 mg/kg/day iv days 1,4,7): 0/16
- IC50 [6]: 0.045 µg/mL (≈ 0.118 µM)
- IC50 (Lovo/DX; Homo sapiens, LoVo/DX, MTT assay, 144 hrs drug exposure, read-out: IC50 µg/ml±S.D. LoVo/Dx): 0.085 µg/mL (≈ 0.223 µM)
- R.I. (Lovo/DX; R.I. = (IC50 LoVo/Dx)/(IC50 LoVo)): 1.9
- cross resistance with mitoxantrone and ametantrone (Lovo/DX; resistant subline Lovo/DX): no cross resistance

Structure (SMILES): NCCNc1ccc(NCCN)c2c1C(=O)c1ccncc1C2=O [Compound 10i.HCl, 6,9-bis{[2-(amino)ethyl]amino}benzo[g]isoquinoline-5,10-dione]
- %T/C (L1210 murine leukemia [7]; 6.25 mg/kg/day ip days 1,5,9): 156%
- TOX (L1210 murine leukemia [7]; 6.25 mg/kg/day ip days 1,5,9): 0/8
- LTS (L1210 murine leukemia [7]; 6.25 mg/kg/day ip days 1,5,9): 0/8
- %T/C (L1210 murine leukemia [7]; 12.5 mg/kg/day ip days 1,5,9): 175%
- TOX (L1210 murine leukemia [7]; 12.5 mg/kg/day ip days 1,5,9): 0/8
- LTS (L1210 murine leukemia [7]; 12.5 mg/kg/day ip days 1,5,9): 1/8
- %T/C (L1210 murine leukemia [7]; 25 mg/kg/day ip days 1,5,9, value calculated on dead mice): 250* %
- TOX (L1210 murine leukemia [7]; 25 mg/kg/day ip days 1,5,9): 1/7
- LTS (L1210 murine leukemia [7]; 25 mg/kg/day ip days 1,5,9): 4/7
- IC50 [2]: 0.05 µg/mL
- %T/C (L1210 murine leukemia [3]; Dose 12.5 mg/kg): 265%
- LTS (L1210 murine leukemia [3]; Dose 12.5 mg/kg): 4/6
- %T/C (L1210 murine leukemia [3]; Dose 25 mg/kg): 265%
- LTS (L1210 murine leukemia [3]; Dose 25 mg/kg): 5/6
- LTS (day 60) (P388 Murine Leukemia [8]; 3.1 mg/kg/day ip days 1,5,9): 0/8
- % T/C (range) (P388 Murine Leukemia [8]; 3.1 mg/kg/day ip days 1,5,9): 144%
- TOX (P388 Murine Leukemia [8]; 3.1 mg/kg/day ip days 1,5,9): 0/8
- LTS (day 60) (P388 Murine Leukemia [8]; 6.25 mg/kg/day ip days 1,5,9): 0/8
- % T/C (range) (P388 Murine Leukemia [8]; 6.25 mg/kg/day ip days 1,5,9): 196%
- TOX (P388 Murine Leukemia [8]; 6.25 mg/kg/day ip days 1,5,9): 1/8
- LTS (day 60) (P388 Murine Leukemia [8]; 12.5 mg/kg/day ip days 1,5,9): 0/8
- % T/C (range) (P388 Murine Leukemia [8]; 12.5 mg/kg/day ip days 1,5,9): 239%
- TOX (P388 Murine Leukemia [8]; 12.5 mg/kg/day ip days 1,5,9): 0/8
- LTS (day 60) (P388 Murine Leukemia [8]; 25 mg/kg/day ip days 1,5,9): 2/8
- % T/C (range) (P388 Murine Leukemia [8]; 25 mg/kg/day ip days 1,5,9): 367%
- TOX (P388 Murine Leukemia [8]; 25 mg/kg/day ip days 1,5,9): 0/8

Structure (SMILES): O=C1c2ccncc2C(=O)c2c(NCCNCCO)ccc(NCCNCCO)c21 [Compound 10l.maleate, 6,9-bis{[2-(2-hydroxyethylamino)ethyl]amino}benzo[g]isoquinoline-5,10-dione]
- IC50 [2]: 0.06 µg/mL
- %T/C (L1210 murine leukemia [3]; Dose 12.5 mg/kg): 313%
- LTS (L1210 murine leukemia [3]; Dose 12.5 mg/kg): 2/6
- %T/C (L1210 murine leukemia [3]; Dose 25 mg/kg): 415%
- LTS (L1210 murine leukemia [3]; Dose 25 mg/kg): 1/6
